SMILES strings stand for the structures.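 Where inhibition never reached the appropriate level, the endpoint shown equals the highest concentration tested. Otherwise, values were interpolated linearly from a five-concentration, 48-hour dose response in 96-well plates. GI50 = concentration required for 50% inhibition of growth.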 Activity calls are given as the source filed them. No stated cut-off is given here; in the data, active = GI50 up to about 1.1 µM and inactive = higher.

Some test systems named below: MDA-N; Hs-578T; HCT-116; SF-268; HL-60; SN12C; M14; A498; SNB-75; RXF 393; OVCAR-3; HOP-92; ACHN; SF-539; SK-MEL-2; A549; TK-10; SK-OV-3; K562; SR.
Test in all cases: inhibition of tumour cell growth, NCI panel, 48 h

Turning to `C/C(=C\CO)CC[C@@H]1[C@@]2(C)CCCC(C)(C)[C@@H]2CC[C@@]1(C)O`, the GI50 is 18.7 µM (inactive) with MDA-N; 24 µM (inactive) in the test on Hs-578T; 22 µM (inactive) in the test on HCT-116; 17.7 µM (inactive) in the test on SF-268; 20.5 µM (inactive) in the test with HL-60; 17.5 µM (inactive) in the test on SN12C. Further, the GI50 is 23.4 µM (inactive) in the test on M14; 17 µM (inactive) in the test with A498; 17.7 µM (inactive) in the test with SNB-75; 17.6 µM (inactive) in the test with RXF 393; 13.9 µM (inactive) in the test on OVCAR-3; 16.7 µM (inactive) in the test on HOP-92. The GI50 in the test on ACHN was 34.2 µM (inactive); with SF-539 it was 18.1 µM (inactive); in the test on SK-MEL-2, 17.6 µM (inactive); in the test on A549, 29.6 µM (inactive); in the test on TK-10 it was 17.5 µM (inactive); with SK-OV-3 it was 21.3 µM (inactive). Further, in the test with K562, the GI50 was 16.5 µM (inactive).

`Cc1ccc(NC(=O)c2cc(S(=O)(=O)N3CCNNC3=O)c(S)cc2Cl)cc1`: the GI50 with MDA-N, in the test on Hs-578T, with HCT-116, in the test with SF-268, with HL-60 and in the test with SN12C was > 100 µM (inactive) in each case. Moreover, the GI50 with M14 is > 100 µM (inactive); with SR, > 100 µM (inactive); with SNB-75, > 100 µM (inactive); in the test with RXF 393, 27.3 µM (inactive); with OVCAR-3 it was > 100 µM (inactive); in the test with HOP-92, 41.3 µM (inactive). Besides, the GI50 in the test with ACHN is > 100 µM (inactive); in the test on SF-539, > 100 µM (inactive); in the test on SK-MEL-2 it was > 100 µM (inactive); in the test with A549, > 100 µM (inactive); in the test on TK-10, 93.8 µM (inactive); in the test on K562, 56.5 µM (inactive).

Consider `CCN(CC)CCC(=O)Nc1ccc2sc3ccccc3c(=O)c2n1`, for which the GI50 in the test on MDA-N is 14.1 µM (inactive); in the test on Hs-578T, 20.7 µM (inactive); with HCT-116, 12.5 µM (inactive); in the test on SF-268 it was 17.1 µM (inactive); in the test with HL-60, 7.98 µM (inactive); with SN12C, 23 µM (inactive). The GI50 was 13.8 µM (inactive) in the test on M14; 15.9 µM (inactive) in the test with SR; 8.55 µM (inactive) with SNB-75; 19.2 µM (inactive) with OVCAR-3; 0.02 µM (active) in the test on HOP-92; 16.3 µM (inactive) with ACHN. The GI50 with SF-539 is 18 µM (inactive); in the test with SK-MEL-2 it was 19.8 µM (inactive); with A549, 17.3 µM (inactive); in the test with TK-10, 18 µM (inactive); in the test on SK-OV-3, 20.6 µM (inactive); with K562 it was 11 µM (inactive).

As for `COC1C(OC(=O)c2ccc(C)[nH]2)C(O)C(Oc2ccc3c(O)c(NC(=O)c4ccc(O)c(CC=C(C)C)c4)c(=O)oc3c2Cl)OC1(C)C` (stereo unspecified), the GI50 in the test with MDA-N was 23 µM (inactive); with Hs-578T, 16.1 µM (inactive); with HCT-116 it was 16.4 µM (inactive); with SF-268, 17.3 µM (inactive); in the test on HL-60 it was 26.3 µM (inactive); with SN12C, 20.7 µM (inactive). Moreover, the GI50 with M14 was 16 µM (inactive); with SR, 22.5 µM (inactive); with A498, 17.9 µM (inactive); in the test with SNB-75 it was 19.1 µM (inactive); in the test on OVCAR-3, 18.7 µM (inactive); in the test with ACHN, 38.3 µM (inactive). Also, the GI50 with SF-539 was 18 µM (inactive); in the test on SK-MEL-2 it was 13.2 µM (inactive); with A549, 24.3 µM (inactive); in the test on TK-10, 55.3 µM (inactive); in the test on SK-OV-3, 20.4 µM (inactive); in the test on K562, 29.6 µM (inactive).

Take `CC1=C/C(=N\O)C(C(O)(C(F)(F)F)C(F)(F)F)C(C)(C)C1` (stereo unspecified): the GI50 in the test on MDA-N, in the test with Hs-578T, in the test on HCT-116, in the test with SF-268, with SN12C and in the test with M14 was > 10 µM (inactive) throughout. For the same compound, the GI50 in the test with SR was > 10 µM (inactive); in the test with A498, > 10 µM (inactive); in the test on SNB-75, 3.49 µM (inactive); in the test on OVCAR-3 it was > 10 µM (inactive); with HOP-92, > 10 µM (inactive); with ACHN it was > 10 µM (inactive). The GI50 in the test with SF-539, in the test on A549, with TK-10, with SK-OV-3 and with K562 was > 10 µM (inactive) in each case.

As for `COc1ccc(-c2cc3c(nn2)-c2ccccc2C3=O)cc1`, the GI50 is > 10 µM (inactive) in the test with MDA-N; > 10 µM (inactive) in the test with Hs-578T; 7.71 µM (inactive) in the test with HCT-116; > 10 µM (inactive) in the test on SF-268; > 10 µM (inactive) in the test on HL-60; > 10 µM (inactive) in the test with SN12C. Moreover, the GI50 is > 10 µM (inactive) in the test with M14; > 10 µM (inactive) in the test on A498; 0.845 µM (active) in the test with SNB-75; > 10 µM (inactive) in the test with RXF 393; > 10 µM (inactive) with OVCAR-3; > 10 µM (inactive) in the test with HOP-92. In addition, the GI50 in the test on ACHN, in the test with SF-539, in the test with SK-MEL-2, with A549, in the test on TK-10 and with SK-OV-3 was > 10 µM (inactive) each time. Moreover, in the test with K562, the GI50 was > 10 µM (inactive).

Turning to `Cc1ccc(Nc2n[nH]c(=S)s2)cc1C`, the GI50 is 40.6 µM (inactive) in the test with MDA-N; > 100 µM (inactive) with Hs-578T; > 100 µM (inactive) in the test on HCT-116; > 100 µM (inactive) in the test on SF-268; 71.1 µM (inactive) in the test with HL-60; > 100 µM (inactive) in the test on SN12C. Moreover, the GI50 with M14 was > 100 µM (inactive); in the test with A498, 58.7 µM (inactive); with SNB-75, > 100 µM (inactive); with RXF 393, > 100 µM (inactive); with OVCAR-3, > 100 µM (inactive); with HOP-92, > 100 µM (inactive). For the same compound, the GI50 in the test on ACHN is > 100 µM (inactive); with SF-539 it was > 100 µM (inactive); in the test with SK-MEL-2, > 100 µM (inactive); in the test on A549, 79.4 µM (inactive); in the test with TK-10, > 100 µM (inactive); in the test on SK-OV-3, > 100 µM (inactive). The GI50 with K562 is 64.1 µM (inactive).

With `COc1cc(-c2c3c([nH]c(=O)c2C#N)-c2cc([N+](=O)[O-])ccc2CCC3)cc(OC)c1OC`, the GI50 in the test with MDA-N was 21.1 µM (inactive); in the test with Hs-578T, 13.3 µM (inactive); in the test with HCT-116 it was 18.8 µM (inactive); with SF-268, 24.2 µM (inactive); with HL-60, 21.4 µM (inactive); with SN12C, 16.2 µM (inactive). Besides, the GI50 with M14 is 35.1 µM (inactive); in the test on A498, 14.2 µM (inactive); in the test on SNB-75 it was 21.7 µM (inactive); in the test on RXF 393, 22.1 µM (inactive); in the test with OVCAR-3, 15.5 µM (inactive); in the test on HOP-92, 25.4 µM (inactive). Further, the GI50 with ACHN is 21 µM (inactive); with SF-539, 24.3 µM (inactive); in the test with SK-MEL-2, 17.9 µM (inactive); with A549, 23.8 µM (inactive); in the test on TK-10 it was 34.8 µM (inactive); with SK-OV-3, 15.5 µM (inactive). Moreover, the GI50 with K562 was 18.9 µM (inactive).

`C[n+]1c(-c2ccccc2)cc2/c(=C\c3ccccc3)c3ccccc3n21`: the GI50 was 0.948 µM (active) with MDA-N; 0.116 µM (active) in the test on Hs-578T; 1.25 µM (inactive) in the test with HCT-116; 0.593 µM (active) in the test on SF-268; 0.0452 µM (active) in the test with HL-60; 0.308 µM (active) in the test with SN12C. Moreover, the GI50 was 1.27 µM (inactive) in the test with M14; 6.32 µM (inactive) with A498; 0.422 µM (active) with SNB-75; 1.36 µM (inactive) in the test on RXF 393; 1.34 µM (inactive) in the test with OVCAR-3; 1.69 µM (inactive) in the test on HOP-92. Moreover, the GI50 is 3.13 µM (inactive) with ACHN; 0.908 µM (active) in the test with SF-539; 0.832 µM (active) with SK-MEL-2; 3.96 µM (inactive) in the test with A549; 2.72 µM (inactive) in the test on TK-10; 4.14 µM (inactive) in the test with SK-OV-3. Further, in the test with K562, the GI50 is 7.03 µM (inactive).

Turning to `O=C(O)C12C3C4(C(=O)O)C1C1(C(=O)O)C2C3(C(=O)O)C41` (stereo unspecified), the GI50 in the test with MDA-N, in the test with Hs-578T, in the test on HCT-116, with SF-268, in the test on HL-60 and in the test on SN12C was > 100 µM (inactive) throughout. For the same compound, the GI50 in the test with M14, in the test with SR, in the test with A498, in the test on SNB-75, in the test on OVCAR-3 and in the test with HOP-92 was > 100 µM (inactive) each time. Besides, the GI50 was > 100 µM (inactive) in the test on ACHN; > 100 µM (inactive) in the test on SF-539; > 100 µM (inactive) in the test with SK-MEL-2; > 100 µM (inactive) in the test with A549; > 100 µM (inactive) in the test on TK-10; < 0.01 µM (active) with K562.

As for `CC(=O)Oc1c(C)cc(-c2cc(C)c(OC(C)=O)c(C)c2)cc1C`, the GI50 was 4.98 µM (inactive) in the test with MDA-N; 15.7 µM (inactive) with Hs-578T; 41.1 µM (inactive) in the test with HCT-116; 36 µM (inactive) in the test with SF-268; 35.2 µM (inactive) in the test on HL-60; 47.1 µM (inactive) with SN12C. For the same compound, the GI50 was 31.1 µM (inactive) with M14; 75.2 µM (inactive) in the test on SR; 16.2 µM (inactive) in the test on SNB-75; 90.2 µM (inactive) with OVCAR-3; 36.3 µM (inactive) with HOP-92; 33 µM (inactive) with ACHN. The GI50 with SK-MEL-2 was 41.6 µM (inactive); with A549 it was 42.4 µM (inactive); with TK-10 it was 30.5 µM (inactive); with SK-OV-3, 19.5 µM (inactive); in the test on K562 it was > 100 µM (inactive).

These data come from ChEMBL document CHEMBL1201862, “PubChem BioAssay data set” (2004).
